Starred links: 1 amine or outer side, 2 acyl side, 3 side chain; linkers in the order of their positions; H or OH if unused. Positions of bridges follow the written chain, without caps; N, C: chain ends. Non-standard residues stand in square brackets, D forms with d. Residues, ends and D or L forms follow the SMILES beside them. Groups on a side chain read outwards from the residue. *: point of attachment. Ala(benzothiazol-2-yl) = N[C@@H](Cc1nc2ccccc2s1)C(=O)O; X25 = O=C([C@H](Cc1cccc(OCC=[*:3])c1)N[*:1])[*:2]; X52 = O=C([C@H](Cc1cc2cc(F)ccc2[nH]1)N[*:1])[*:2]; Trp(5-F) = N[C@@H](Cc1c[nH]c2ccc(F)cc12)C(=O)O; Pro(3R-Ph) = O=C(O)[C@H]1NCC[C@@H]1c1ccccc1; X3 = O=C(CCSCc1cc(F)cc(CSCCN[*:1])c1)[*:2]; X42 = CN([C@@H](CCC=[*:3])C(=O)[*:2])[*:1]; NMeW = CN[C@@H](Cc1c[nH]c2ccccc12)C(=O)O; X4 = O=C(CCSCc1cccc(CSCCN[*:1])c1)[*:2]; γGlu = O=C(O)[C@H](CCC(=O)[*:2])N[*:1]; mXylylene = c1cc(C[*:1])cc(C[*:2])c1; NMeY = CN[C@@H](Cc1ccc(O)cc1)C(=O)O; Palmitoyl = CCCCCCCCCCCCCCCC(=O)*; X35 = COc1cc(C[*:1])cc(C[*:2])c1; NMeD = CN[C@@H](CC(=O)O)C(=O)O; αMeK = C[C@](N)(CCCCN)C(=O)O; αMeP = C[C@@]1(C(=O)O)CCCN1; NMeS = CN[C@@H](CO)C(=O)O; Pip = O=C(O)[C@@H]1CCCCN1; NMeA = CN[C@@H](C)C(=O)O; Aze = O=C(O)[C@@H]1CCN1; Nva = CCC[C@H](N)C(=O)O; Aib = CC(C)(N)C(=O)O; βAla = NCCC(=O)O; Mpa = O=C(O)CCS; Sar = CNCC(=O)O
Molecular target: human PCSK9 / human LDLR EGFa domain interaction (Homo sapiens (Human), UniProt Q8NBP7)
Assay: TR-FRET assay of inhibition of the PCSK9-LDLR protein-protein interaction
Format: binding
Settings: TR-FRET, 20 nM human PCSK9, 20 nM human LDLR EGFa domain, 2 hours room temperature; read-out: IC50
Outline: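 Half-maximal inhibitory concentrations came from 4-parameter fits of dose-response data. Proteins: biotinylated PCSK9, His-tagged LDLR EGFa, 20 nM each; labels 5 nM; 2 h, room temperature; buffer 50 mM HEPES, 150 mM NaCl, 5 mM CaCl2.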

Chain of human PCSK9 / human LDLR EGFa domain interaction (Q8NBP7 153-692): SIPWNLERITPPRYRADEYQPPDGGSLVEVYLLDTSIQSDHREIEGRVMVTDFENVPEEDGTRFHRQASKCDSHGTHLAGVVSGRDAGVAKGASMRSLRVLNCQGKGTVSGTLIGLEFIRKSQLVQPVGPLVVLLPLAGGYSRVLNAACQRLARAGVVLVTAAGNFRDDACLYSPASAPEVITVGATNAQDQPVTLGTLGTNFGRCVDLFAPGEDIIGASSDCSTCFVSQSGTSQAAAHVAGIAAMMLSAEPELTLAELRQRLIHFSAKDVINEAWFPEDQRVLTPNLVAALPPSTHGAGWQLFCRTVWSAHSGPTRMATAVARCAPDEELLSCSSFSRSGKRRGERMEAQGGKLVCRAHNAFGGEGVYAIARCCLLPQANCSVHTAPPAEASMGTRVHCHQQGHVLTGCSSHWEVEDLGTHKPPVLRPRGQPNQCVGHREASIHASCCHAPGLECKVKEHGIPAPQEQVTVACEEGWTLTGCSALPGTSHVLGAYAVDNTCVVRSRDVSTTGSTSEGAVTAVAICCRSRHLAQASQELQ
Chain of human PCSK9 / human LDLR EGFa domain interaction (Q8NBP7 31-152 partner): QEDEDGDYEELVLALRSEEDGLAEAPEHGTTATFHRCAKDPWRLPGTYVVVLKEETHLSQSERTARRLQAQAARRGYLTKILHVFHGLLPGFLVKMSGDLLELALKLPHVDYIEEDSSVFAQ

| IC50 [µM] | Structure (SMILES) |
| --- | --- |
| 1 to 12.1 | NCCCC[C@@H]1NC(=O)CCCCn2cc(nn2)CCC[C@@H](C(N)=O)NC(=O)[C@@H]2CCCN2C(=O)[C@H](Cc2ccc(O)cc2)NC(=O)[C@H](Cc2c[nH]cn2)NC(=O)[C@H](CC(=O)O)NC(=O)[C@H](Cc2c[nH]c3ccc(F)cc23)NC(=O)[C@H](Cc2c[nH]c3ccc(F)cc23)NC(=O)CNC1=O [Compound 153] |
| 0.0001 to 0.1 | NCCCC[C@@H]1NC(=O)CCCCn2cc(nn2)CC[C@@H](C(N)=O)NC(=O)[C@@H]2CCCN2C(=O)[C@H](Cc2ccc(O)cc2)NC(=O)[C@H](Cc2c[nH]cn2)NC(=O)[C@H](CC(=O)O)NC(=O)[C@H](Cc2c[nH]c3ccc(F)cc23)NC(=O)[C@H](Cc2c[nH]c3ccc(F)cc23)NC(=O)CNC1=O [Compound 185] |
| 21 to 50 | CN1CC(=O)N[C@@H](Cc2c[nH]c3ccccc23)C(=O)N[C@@H](Cc2c[nH]c3ccccc23)C(=O)N(C)[C@@H](CC(=O)O)C(=O)N[C@@H](Cc2cnc[nH]2)C(=O)N(C)[C@@H](Cc2ccc(O)cc2)C(=O)N2CCC[C@H]2C(=O)N[C@H](C(N)=O)CSCc2cccc(c2)CSCCC(=O)N[C@@H](CCCCN)C1=O [Compound 221] ([Mpa]K[Sar]WW[NMeD]H[NMeY]PC-NH2; linker 1-10 via mXylylene) |
| 0.1 to 1 | CC(=O)N[C@H]1CSCc2cccc(c2)CSC[C@@H](C(N)=O)NC(=O)[C@@H]2CCCN2C(=O)[C@H](Cc2ccc(O)cc2)NC(=O)[C@H](Cc2cnc[nH]2)NC(=O)[C@H](CC(=O)O)NC(=O)[C@H](Cc2c[nH]c3ccc(F)cc23)NC(=O)[C@H](Cc2c[nH]c3ccc(F)cc23)NC(=O)CNC(=O)[C@H](CCCCN)NC1=O [Compound 148] (Ac-CKG[Trp(5-F)][Trp(5-F)]DHYPC-NH2; linker 1-10 via mXylylene) |
| 21 to 50 | CCCCCCCCCCCCCCCC(=O)N[C@@H](CCC(=O)N[C@@H](CCC(=O)NCCCC[C@@H]1NC(=O)CCSCc2cccc(c2)CSC[C@@H](C(N)=O)NC(=O)[C@]2(C)CCCN2C(=O)[C@H](Cc2ccc(O)cc2)NC(=O)[C@H](Cc2c[nH]cn2)NC(=O)[C@H](CC(=O)O)NC(=O)[C@H](Cc2c[nH]c3ccc(F)cc23)NC(=O)[C@H](Cc2c[nH]c3ccc(F)cc23)NC(=O)CNC1=O)C(=O)O)C(=O)O [Compound 283] ([Mpa]K([γGlu-γGlu-Palmitoyl])G[Trp(5-F)][Trp(5-F)]DHY[αMeP]C-NH2; linker 1-10 via mXylylene) |
| 1 to 12.1 | NCCCC[C@@H]1NC(=O)CCSCc2cccc(c2)CSC[C@@H](C(N)=O)NC(=O)[C@@H]2CCCN2C(=O)[C@@H]2[C@@H](c3ccccc3)CCN2C(=O)[C@H](Cc2c[nH]cn2)NC(=O)[C@H](CC(=O)O)NC(=O)[C@H](Cc2c[nH]c3ccc(F)cc23)NC(=O)[C@H](Cc2c[nH]c3ccc(F)cc23)NC(=O)CNC1=O [Compound 326] ([Mpa]KG[Trp(5-F)][Trp(5-F)]DH[Pro(3R-Ph)]PC-NH2; linker 1-10 via mXylylene) |
| 1 to 12.1 | C[C@@]1(CCCCN)NC(=O)CCSCc2cccc(c2)CSC[C@@H](C(N)=O)NC(=O)[C@@H]2CCCN2C(=O)[C@H](Cc2ccc(O)cc2)NC(=O)[C@H](Cc2c[nH]cn2)NC(=O)[C@H](CC(=O)O)NC(=O)[C@H](Cc2c[nH]c3ccc(F)cc23)NC(=O)[C@H](Cc2c[nH]c3ccc(F)cc23)NC(=O)CNC1=O [Compound 214] ([Mpa][αMeK]G[Trp(5-F)][Trp(5-F)]DHYPC-NH2; linker 1-10 via mXylylene) |
| 0.1 to 1 | COc1ccc(C[C@@H]2NC(=O)[C@H]([C@@H](C)OC)NC(=O)[C@@H]3CC/C=C/COc4cccc(c4)C[C@H](NC(=O)[C@@H](C)NC(=O)[C@H](C)NC(=O)CCSCc4cc(F)cc(c4)CSCCNC(=O)[C@]4(C)CCCN4C2=O)C(=O)N[C@@H](Cc2c[nH]c4ccc(F)cc24)C(=O)N3C)cc1 [Compound 504] (cyclo(A[dA][X25][Trp(5-F)][X42]T(Me)Y(Me)[αMeP][X3]); staple (E) 3-5) |
| 21 to 50 | NCCCC[C@@H]1NC(=O)CCSCc2cccc(c2)CSC[C@@H](C(N)=O)NC(=O)[C@@H]2CCN2C(=O)[C@H](Cc2ccc(O)cc2)NC(=O)[C@H](Cc2cnc[nH]2)NC(=O)[C@H](CC(=O)O)NC(=O)[C@H](Cc2c[nH]c3ccc(F)cc23)NC(=O)[C@H](Cc2c[nH]c3ccc(F)cc23)NC(=O)CNC1=O [Compound 207] ([Mpa]KG[Trp(5-F)][Trp(5-F)]DHY[Aze]C-NH2; linker 1-10 via mXylylene) |
| 21 to 50 | C[C@@H]1NC(=O)[C@@H]2CCN2C(=O)[C@H](Cc2c[nH]c3ccc(F)cc23)NC(=O)[C@H](Cc2c[nH]c3ccc(F)cc23)NC(=O)[C@@H](C)NC(=O)[C@H](CCCCN)NC(=O)CCSCc2cccc(c2)CSCCNC(=O)[C@]2(C)CCCN2C(=O)[C@H](Cc2ccc(O)cc2)NC1=O [Compound 002] (cyclo(AY[αMeP][X4]K[dA][Trp(5-F)][Trp(5-F)][Aze])) |
| 1 to 12.1 | COc1ccc(C[C@@H]2NC(=O)CCNC(=O)[C@@H]3CCCN3C(=O)[C@H](Cc3c[nH]c4ccc(F)cc34)NC(=O)[C@H](Cc3cc4cc(F)ccc4[nH]3)NC(=O)[C@@H](C)NC(=O)[C@H](CCCCN)NC(=O)CCSCc3cccc(c3)CSCCNC(=O)[C@]3(C)CCCN3C2=O)cc1 [Compound 003] (cyclo(K[dA][X52][Trp(5-F)]P[βAla]Y(Me)[αMeP][X4])) |
| 0.1 to 1 | C[C@@H](O)[C@@H]1NC(=O)[C@@H]2CCCN2C(=O)[C@H](Cc2c[nH]c3ccc(F)cc23)NC(=O)[C@H](Cc2c[nH]c3ccc(F)cc23)NC(=O)CNC(=O)[C@H](CCCCN)NC(=O)CCSCc2cccc(c2)CSC[C@@H](C(N)=O)NC(=O)[C@]2(C)CCCN2C(=O)[C@H](Cc2ccc(O)cc2)NC1=O [Compound 014] ([Mpa]KG[Trp(5-F)][Trp(5-F)]PTY[αMeP]C-NH2; linker 1-10 via mXylylene) |
| 1 to 12.1 | C[C@H]1C(=O)N(C)[C@@H](Cc2ccc(O)cc2)C(=O)N2CCC[C@H]2C(=O)N[C@H](C(N)=O)CSCc2cccc(c2)CSCCC(=O)N[C@@H](CCCCN)C(=O)N(C)CC(=O)N(C)[C@@H](Cc2c[nH]c3ccccc23)C(=O)N[C@@H](Cc2c[nH]c3ccccc23)C(=O)N[C@@H](CC(=O)O)C(=O)N1C [Compound 015] ([Mpa]K[Sar][NMeW]WD[NMeA][NMeY]PC-NH2; linker 1-10 via mXylylene) |
| 1 to 12.1 | CCC[C@H](NC(C)=O)C(=O)N(C)[C@@H](CO)C(=O)N[C@@H](CCCCN)C(=O)N[C@H]1CSCc2cccc(c2)CSC[C@@H](C(N)=O)NC(=O)[C@@H]2CCCN2C(=O)[C@H](Cc2ccc(O)cc2)NC(=O)[C@H](Cc2c[nH]cn2)NC(=O)[C@H](CC(=O)O)NC(=O)[C@H](Cc2c[nH]c3ccc(F)cc23)NC(=O)[C@H](Cc2c[nH]c3ccc(F)cc23)NC(=O)CNC(=O)[C@H](CCCCN)NC1=O [Compound 145] (Ac-[Nva][NMeS]KCKG[Trp(5-F)][Trp(5-F)]DHYPC-NH2; linker 4-13 via mXylylene) |
| 21 to 50 | NCCCC[C@@H]1NC(=O)CCSCc2cccc(c2)CSC[C@@H](C(N)=O)NC(=O)[C@@H]2CCCN2C(=O)[C@H](Cc2nc3ccccc3s2)NC(=O)[C@H](Cc2c[nH]cn2)NC(=O)[C@H](CC(=O)O)NC(=O)[C@H](Cc2c[nH]c3ccc(F)cc23)NC(=O)[C@H](Cc2c[nH]c3ccc(F)cc23)NC(=O)CNC1=O [Compound 266] ([Mpa]KG[Trp(5-F)][Trp(5-F)]DH[Ala(benzothiazol-2-yl)]PC-NH2; linker 1-10 via mXylylene) |
| 0.0001 to 0.1 | CC1(C)NC(=O)[C@H](Cc2cnc[nH]2)NC(=O)[C@H](CC(=O)O)NC(=O)[C@H](Cc2c[nH]c3ccc(F)cc23)NC(=O)[C@H](Cc2c[nH]c3ccc(F)cc23)NC(=O)CNC(=O)[C@H](CCCCN)NC(=O)CCSCc2cccc(c2)CSC[C@@H](C(N)=O)NC(=O)[C@@H]2CCCN2C1=O [Compound 318] ([Mpa]KG[Trp(5-F)][Trp(5-F)]DH[Aib]PC-NH2; linker 1-10 via mXylylene) |
| 21 to 50 | NCCCC[C@@H]1NC(=O)CCSCc2cccc(c2)CSC[C@@H](C(N)=O)NC(=O)[C@@H]2CCCCN2C(=O)[C@H](Cc2ccc(O)cc2)NC(=O)[C@H](Cc2cnc[nH]2)NC(=O)[C@H](CC(=O)O)NC(=O)[C@H](Cc2c[nH]c3ccc(F)cc23)NC(=O)[C@H](Cc2c[nH]c3ccc(F)cc23)NC(=O)CNC1=O [Compound 208] ([Mpa]KG[Trp(5-F)][Trp(5-F)]DHY[Pip]C-NH2; linker 1-10 via mXylylene) |

| Structure (SMILES) | IC50 [µM] |
| --- | --- |
| COc1cc2cc(c1)CSC[C@@H](C(N)=O)NC(=O)[C@@H]1CCCN1C(=O)[C@H](Cc1ccc(O)cc1)NC(=O)[C@H](Cc1c[nH]cn1)NC(=O)[C@H](CC(=O)O)NC(=O)[C@H](Cc1c[nH]c3ccc(F)cc13)NC(=O)[C@H](Cc1c[nH]c3ccc(F)cc13)NC(=O)CNC(=O)[C@H](CCCCN)NC(=O)CCSC2 [Compound 197] ([Mpa]KG[Trp(5-F)][Trp(5-F)]DHYPC-NH2; linker 1-10 via X35) | 21 to 50 |
| CC1(C)NC(=O)[C@H](Cc2ccc(O)cc2)NC(=O)[C@H](Cc2cnc[nH]2)NC(=O)[C@H](CC(=O)O)NC(=O)[C@H](Cc2c[nH]c3ccc(F)cc23)NC(=O)[C@H](Cc2c[nH]c3ccc(F)cc23)NC(=O)CNC(=O)[C@H](CCCCN)NC(=O)CCSCc2cccc(c2)CSC[C@@H](C(N)=O)NC1=O [Compound 218] ([Mpa]KG[Trp(5-F)][Trp(5-F)]DHY[Aib]C-NH2; linker 1-10 via mXylylene) | 0.1 to 1 |
| C[C@H]1NC(=O)[C@H](CCCCN)NC(=O)CCSCc2cc(F)cc(c2)CSCCNC(=O)[C@]2(C)CCCN2C(=O)[C@H](Cc2ccc(O)cc2)NC(=O)[C@H](Cc2cnc[nH]2)NC(=O)[C@H](CC(=O)O)NC(=O)[C@H](Cc2c[nH]c3ccc(F)cc23)NC(=O)[C@H](Cc2c[nH]c3ccc(F)cc23)NC1=O [Compound 289] (cyclo(DHY[αMeP][X3]K[dA][Trp(5-F)][Trp(5-F)])) | 21 to 50 |

From US11530244B2, “Cyclic polypeptides for PCSK9 inhibition” (priority 2018, dated 2022)
